Patent publication US8445512B2, “Substituted quinoline-3-carboxamides as KCNQ2/3 modulators” (Gruenenthal GmbH, priority 2010, dated 2013)

How the values were obtained:
KCNQ2/3 channels = target: T1, KCNQ2/3 channels (Homo sapiens, UniProt O43525+O43526); assay: Fluorescence assay using a voltage sensitive dye (fluorimetry); format: cell-based; settings: CHO-K1 cells expressing KCNQ2/3 channels; for Emax: relative to retigabine = 100%, read-out: Fluorimetry % efficacy (retigabine = 100%)
T1 construct: expressed in transfected cells
Procedure: Method I. Fluorescence Assay Using a Voltage Sensitive Dye (Fluorimetry)
[…] CHO-K1 cells expressing KCNQ2/3 channels are cultivated adherently at 37° C., 5% CO2 and 95% humidity in cell culture bottles (e.g. 80 cm^2 TC flasks, Nunc) with DMEM-high glucose (Sigma Aldrich, D7777) including 10% FCS (PAN Biotech, e.g. 3302-P270521) or alternatively MEM Alpha Medium (1×, liquid, Invitrogen, #22571), 10% fetal calf serum (FCS) (Invitrogen, #10270-106, heat-inactivated) and the necessary selection antibiotics.
Before being sown out for the measurements, the cells are washed with 1×DPBS buffer Ca^2+/Mg^2+-free (e.g. Invitrogen, #14190-094) and detached from the bottom of the culture vessel by using Accutase (PAA Laboratories, #L11-007) (incubation with Accutase for 15 min at 37° C.). The cell number is determined using a CASY™ cell counter (TCC, Schärfe System). Depending on the optimal density for each individual cell line, 20,000-30,000 cells/well/100 μl are seeded onto 96-well Corning™ CellBIND™ assay plates (Flat Clear Bottom Black Polystyrene Microplates, #3340). Freshly seeded cells are then left to settle for one hour at room temperature, followed by incubation for 24 hours at 37° C., 5% CO2 and 95% humidity.
The voltage-sensitive fluorescent dye from the Membrane Potential Assay Kit (Red™ Bulk format part R8123 for FLIPR, MDS Analytical Technologies™) is prepared by dissolving the contents of one vessel Membrane Potential Assay Kit Red Component A in 200 ml of extracellular buffer (ES buffer, 120 mM NaCl, 1 mM KCl, 10 mM HEPES, 2 mM CaCl2, 2 mM MgCl2, 10 mM glucose; pH 7.4). After removal of the nutrient medium, the cells are washed once with 200 μl of ES buffer, then loaded for 45 min at room temperature in 100 μl of dye solution in the dark.
Fluorescence measurements are carried out in a BMG Labtech FLUOstar™, BMG Labtech NOVOstar™ or BMG Labtech POLARstar™ instrument (525 nm excitation, 560 nm emission, Bottom Read mode). After incubation with the dye, 50 μl of the test substances in the desired concentrations, or 50 μl of ES buffer for control purposes, are applied to the wells of the assay plate and incubated for 30 min at room temperature while being shielded from light. The fluorescence intensity of the dye is then measured for 5 min and the fluorescence value F1 of each well is thus determined at a given, constant time. 15 μl of a KCl solution are then added to each well (final concentration of potassium ions 92 mM). The change in fluorescence intensity is subsequently monitored until all the relevant values have been obtained (mainly 5-30 min). At a given time post KCl application, a fluorescence value F2 is determined, in this case at the time of the fluorescence peak.
For calculation, the fluorescence intensity F2 is corrected for the fluorescence intensity F1, and the activity (ΔF/F) of the target compound on the potassium channel is determined as follows:
In order to determine whether a substance has agonistic activity,
[formula] can be related to
[formula] of control wells.
[formula] is determined by adding to the well only the buffer solution instead of the test substance, determining the value F1K of the fluorescence intensity, adding the potassium ions as described above, and measuring a value F2K of the fluorescence intensity. F2K and F1K are then calculated as follows: […]
A substance has an agonistic activity on the potassium channel if
[formula] is greater than
Independently of the comparison of
[formula] it is possible to conclude that a target compound has agonistic activity if
(§1) [formula] increases dose dependently. Calculations of EC50 and IC50 values are carried out with the aid of ‘Prism v4.0’ software (GraphPad Software™) Method II. Low-Intensity Tail Flick Test (Rat)

[1] = test system: withdrawal reflex of the rat tail (tail flick) in response to a radiant heat beam; assay: Low-intensity tail flick test (rat); format: in vivo; settings: po, peroral, read-out: Low intensity tail flick, rat, peroral, % MPE (dose [mg/kg])
Procedure: as §1
In the low-intensity tail flick test, the determination of the antinociceptive effect of the compounds according to the invention towards an acute noxious thermal stimulus is carried out by measuring the withdrawal reflex of the rat tail (tail flick) in response to a radiant heat beam (analgesia meter; model 2011 of the company Rhema Labortechnik, Hofheim, Germany) according to the method described by D'Annour and Smith (J. Pharm. Exp. Ther. 72, 74 79 (1941). To this end, the rats were placed in a plexiglas restrainer, and a low-intensity radiant heat beam (48° C.) was focused onto the dorsal surface of the tail root. The stimulus intensity was adjusted to result in a mean pre-drug control withdrawal latency of about 7 s, thus also allowing a supraspinal modulation of the spinally mediated acute nociceptive reflex. A cutoff time of 30 s was applied to avoid tissue damage. Male Sprague-Dawley rats (Janvier, Le Genest St. Isle, Frankreich) with weights of 200-250 g were used. 10 rats were used per group. Before administration of a compound according to the invention, the animals were pre-tested twice in the course of five minutes and the mean of these measurements was calculated as the pre-test mean. The antinociceptive effect was determined at 20, 40 and 60 min after peroral compound administration. The antinociceptive effect was calculated based on the increase in the tail withdrawal latency according to the following formula and is expressed as percentage of the maximum possible effect (MPE [%]): MPE=[(T1−T0)/(T2−T0)]*100
In this, T0 is the control latency time before and T1 the latency time after administration of the compound, T2 is the cutoff time and MPE is the maximum possible effect. Employing variant analysis (repeated measures ANOVA) allowed testing of statistically significant differences between the compounds according to the invention and the vehicle group. The significance level was set to p≦0.05. To determine the dose dependency, the particular compound according to the invention was administered in 3-5 logarithmically increasing doses, including a threshold dose and a maximum effective dose, and the ED50 values were determined with the aid of regression analysis. The ED50 calculation was performed at the time of maximum efficacy (usually 20 min after administration of the compounds).

| Structure (SMILES) | EC50 (KCNQ2/3 channels) | Emax (KCNQ2/3 channels) | inhibition in vivo at 10 mg/kg [1] | inhibition in vivo at 6.81 mg/kg [1] |
| --- | --- | --- | --- | --- |
| COCc1nc2cc(C(F)(F)F)ccc2c(C)c1C(=O)NCc1ccc(F)cc1 [Example 16, N-[(4-Fluorophenyl)-methyl]-2-(methoxymethyl)-4-methyl-7-(trifluoromethyl)-quinoline-3-carboxylic acid amide] | 393 nM | 96% | 21% | – |
| CCCc1nc2cc(C(F)(F)F)ccc2c(C)c1C(=O)NCc1ccc(F)cc1 [Example 3, N-[(4-fluorophenyl)-methyl]-4-methyl-2-propyl-7-(trifluoromethyl)-quinoline-3-carboxylic acid amide] | 43 nM | 126% | 51% | – |
| Cc1c(C(=O)NCc2ccc(F)cc2)c(C(C)C)nc2cc(C(F)(F)F)ccc12 [Example 7, N-[(4-Fluorophenyl)-methyl]-2-isopropyl-4-methyl-7-(trifluoromethyl)-quinoline-3-carboxylic acid amide] | 65 nM | 181% | 54% | – |
| CCc1nc2cc(C(F)(F)F)ccc2c(C)c1C(=O)NCc1ccc(F)cc1 [Example 5, 2-Ethyl-N-[(4-fluorophenyl)-methyl]-4-methyl-7-(trifluoromethyl)-quinoline-3-carboxylic acid amide] | 266 nM | 157% | – | – |

Continued, in another order:

| EC50 (KCNQ2/3 channels) | Emax (KCNQ2/3 channels) | Structure (SMILES) | inhibition in vivo at 10 mg/kg [1] | inhibition in vivo at 6.81 mg/kg [1] |
| --- | --- | --- | --- | --- |
| 53 nM | 185% | Cc1c(C(=O)NCc2cccc(F)c2)c(C(C)C)nc2cc(C(F)(F)F)ccc12 [Example 8, N-[(3-Fluorophenyl)-methyl]-2-isopropyl-4-methyl-7-(trifluoromethyl)-quinoline-3-carboxylic acid amide] | 65% | – |
| 91 nM | 182% | Cc1c(C(=O)NCc2cccc(F)c2)c(C2CC2)nc2cc(C(F)(F)F)ccc12 [Example 10, 2-Cyclopropyl-N-[(3-fluorophenyl)-methyl]-4-methyl-7-(trifluoromethyl)-quinoline-3-carboxylic acid amide] | – | 43% |
| 178 nM | 177% | CCc1nc2cc(C(F)(F)F)ccc2c(C)c1C(=O)NCc1cccc(F)c1 [Example 6, 2-Ethyl-N-[(3-fluorophenyl)-methyl]-4-methyl-7-(trifluoromethyl)-quinoline-3-carboxylic acid amide] | – | 51% |
| 126 nM | 161% | Cc1c(C(=O)NCc2ccc(F)cc2)c(C2CC2)nc2cc(C(F)(F)F)ccc12 [Example 9, 2-Cyclopropyl-N-[(4-fluorophenyl)-methyl]-4-methyl-7-(trifluoromethyl)-quinoline-3-carboxylic acid amide] | 15% | – |
| 635 nM | 117% | COCc1nc2cc(C(F)(F)F)ccc2c(C)c1C(=O)NCc1cccc(F)c1 [Example 15, N-[(3-fluorophenyl)-methyl]-2-(methoxymethyl)-4-methyl-7-(trifluoromethyl)-quinoline-3-carboxylic acid amide] | 9% | – |
